# Article PMC7413516, “Antidepressant-like activity and safety profile evaluation of 1H-imidazo[2,1-f]purine-2,4(3H,8H)-dione derivatives as 5-HT1A receptor partial agonists” (PLoS ONE, 2020)
# Values joined by “and” are separate entries in the source; they are usually repeats but may differ in a detail not shown here. Equal values may be shown once. Read-outs that look alike come from different tables or passages of the source.
# Assay: Pharmacokinetic study in mice, plasma and brain structures, LC/MS/MS
# Assay type: in vivo, Swiss albino mice
# Conditions: 1.25 mg/kg i.p.; for Kp: ratio of AUC values
# Protocol: Blood samples from the Swiss albino mice were collected at 0 (pre-dose), 5, 15, 30, 60, 120, 240 and 480 min after a compound administration. The blood samples and brain structures were collected under general anesthesia induced by i.p. injection of 50 mg/kg ketamine plus 8 mg/kg xylazine. The blood samples were taken into heparinized tubes, immediately centrifuged at 1000 × g for 10 min, and plasma was collected. The plasma samples and brain structures were immediately frozen at -30°C and -80°C, respectively.
# The plasma and tissue sample pretreatment procedure involved acetonitrile precipitation. A 5 μL aliquot of the IS working solution (100 ng/mL) was added to 50 μL of the collected mouse plasma sample, which was then vortex-mixed for 10 seconds. Thereafter, 200 μL of acetonitrile was added, vortexed during 20 min, and then centrifuged (1000 × g, 10 min). The supernatant (100 μL) was then transferred to insert placed in an autosampler vial, and a 10 μL volume of this was injected onto the HPLC column. Tissue samples were thawed before use, and whole hippocampus, striatum and frontal cortex were weighted and placed in a glass mortar and pestle tissue grinder and homogenized with an appropriate amount of phosphate buffer (pH 7.4) in 1:5 ratio. Afterward, 50 μL of tissue homogenates were transferred to new Eppendorf tubes and spiked with 5 μL of the internal standard working solution. All samples were stored on ice during the preparation process. This was followed by procedures like those described above.
# The LC/ESI-MS/MS experiments were performed on an Applied Biosystems/MDS Sciex (Concord, Ontario, Canada) API 2000 triple quadrupole mass spectrometer equipped with an electrospray (ESI) ionization interface. This instrument was coupled to an Agilent 1100 (Agilent Technologies, Waldbronn, Germany) LC system. Data acquisition and processing were accomplished using Sciex Analyst 1.4.2 data collection and integration software.
# An XBridge C18 (2.1 x 30 mm, 3.5 μm) analytical column (Waters, Milford, Massachusetts, USA) was used for compound separation. The temperatures of the column thermostat and the autosampler were set at 25°C and 10°C, respectively. The mobile phase consisted of a mixture of acetonitrile with addition of 0.1% formic acid (solvent A) and water with addition of 0.1% formic acid (solvent B) and was set at a flow rate of 0.6 mL/min. Starting amount of solvent A is 10%, isocratic elution from 0 to 3 min, and then gradient up to 90% of solvent A, and maintained to 10 min, and then gradient down to 10% of solvent A, and maintained to 15 min.
# The ion source parameters were as follows: ion spray voltage: 5500 V; nebulizer gas (gas 1): 20 psi; turbo gas (gas 2): 25 psi; temperature of the heated nebulizer: 400°C; curtain gas: 40 psi; collision gas: 6 psi. Mass spectra were acquired by SRM with precursor/predominant product ion transitions for each analyte. The mass spectral Q1→Q3 transitions monitored for AZ-853, AZ-861 and for IS (nebivolol), were m/z 453.9→235.1; 504.3→285.1 and 406.2→151.1, respectively. The peak widths of precursor and product ions were set to 0.7 full width half-height. Quantification was done via peak area ratio.
# Pharmacokinetic parameters were calculated by a non-compartmental approach from the average concentration values, using Phoenix WinNonlin software (Certara, Princeton, NJ 08540 USA). First order elimination rate constant (λz) was calculated by linear regression of time versus log concentration. Next, the area under the mean serum and tissue concentration versus time curve (AUC0→t) was estimated using the log-linear trapezoidal rule (1), where Ci is the plasma concentration measured at t1.
# AUC0→t=∑i=1n((Ci+Ci+1)/2)∙(ti+1−ti). (1)
# Area under the first-moment curve (AUMC0→t) was estimated by calculation of the total area under the first-moment curve using the Eq (2), where Ci is the plasma concentration measured at t1. AUMC0→t=∑i=1n((ti∙Ci+ti+1∙Ci+1)/2)∙(ti+1−ti). […]
structure (smiles),measurement,setting,value
"Cn1c(=O)c2c(nc3n(CCCCN4CCN(c5cccc(C(F)(F)F)c5)CC4)ccn23)n(C)c1=O [AZ-861, 1,3-dimethyl-8-(4-(4-(3-(trifluoromethyl)phenyl)piperazin-1-yl)butyl)-1H-imidazo[2,1-f]purine-2,4(3H,8H)-dione]",t0.5,,ca. 1.5 h
same,"t0.5, frontal cortex",,91.6 min
same,"t0.5, hippocampus",,110.4 min
same,"t0.5, striatum",,83 min
same,"t0.5, plasma",1.25 mg/kg,97 min and 97.5 min
same,"Concentration, plasma (individual animals)","5 min, 1.25 mg/kg",45.82 ng/mL
same,"Concentration, frontal cortex (individual animals)","15 min, 1.25 mg/kg",230.57 ng/mL and 280.45 ng/mL and 263.78 ng/mL and 270.14 ng/mL and 226.47 ng/mL
same,"Concentration, hippocampus (individual animals)","15 min, 1.25 mg/kg",234.13 ng/mL and 378.52 ng/mL and 328.15 ng/mL and 322.19 ng/mL and 317.44 ng/mL
same,"Concentration, plasma (individual animals)","15 min, 1.25 mg/kg",44.70 ng/mL and 36.90 ng/mL and 42.80 ng/mL and 28.74 ng/mL and 38.15 ng/mL
same,"Concentration, striatum (individual animals)","15 min, 1.25 mg/kg",389.35 ng/mL and 271.77 ng/mL and 374.54 ng/mL and 325.44 ng/mL and 267.13 ng/mL
same,"Concentration, frontal cortex (individual animals)","30 min, 1.25 mg/kg",184.45 ng/mL and 218.78 ng/mL and 190.14 ng/mL and 183.24 ng/mL and 219.17 ng/mL
same,"Concentration, hippocampus (individual animals)","30 min, 1.25 mg/kg",192.35 ng/mL and 319.65 ng/mL and 217.19 ng/mL and 301.16 ng/mL and 245.19 ng/mL
same,"Concentration, plasma (individual animals)","30 min, 1.25 mg/kg",31.10 ng/mL and 30.60 ng/mL and 22.40 ng/mL and 15.17 ng/mL and 19.56 ng/mL and 30.17 ng/mL
same,"Concentration, striatum (individual animals)","30 min, 1.25 mg/kg",310.53 ng/mL and 258.57 ng/mL and 322.23 ng/mL and 318.66 ng/mL and 277.19 ng/mL
same,"Concentration, frontal cortex (individual animals)","60 min, 1.25 mg/kg",97.18 ng/mL and 109.15 ng/mL and 91.75 ng/mL and 83.56 ng/mL and 89.47 ng/mL
same,"Concentration, hippocampus (individual animals)","60 min, 1.25 mg/kg",110.60 ng/mL and 98.83 ng/mL and 88.50 ng/mL and 94.16 ng/mL and 88.17 ng/mL
same,"Concentration, plasma (individual animals)","60 min, 1.25 mg/kg",6.60 ng/mL and 4.60 ng/mL and 6.58 ng/mL and 5.72 ng/mL and 4.19 ng/mL
same,"Concentration, striatum (individual animals)","60 min, 1.25 mg/kg",69.53 ng/mL and 62.19 ng/mL and 51.27 ng/mL and 55.66 ng/mL and 48.45 ng/mL
same,"Concentration, frontal cortex (individual animals)","120 min, 1.25 mg/kg",41.78 ng/mL and 43.56 ng/mL and 39.11 ng/mL and 40.15 ng/mL and 41.18 ng/mL
same,"Concentration, hippocampus (individual animals)","120 min, 1.25 mg/kg",51.18 ng/mL and 56.82 ng/mL and 60.95 ng/mL and 47.42 ng/mL and 49.13 ng/mL
same,"Concentration, plasma (individual animals)","120 min, 1.25 mg/kg",2.36 ng/mL and 2.87 ng/mL and 3.33 ng/mL and 3.12 ng/mL and 1.97 ng/mL
same,"Concentration, striatum (individual animals)","120 min, 1.25 mg/kg",30.75 ng/mL and 29.92 ng/mL and 21.66 ng/mL and 19.44 ng/mL and 23.17 ng/mL
same,"Concentration, frontal cortex (individual animals)","240 min, 1.25 mg/kg",18.75 ng/mL and 10.56 ng/mL and 16.25 ng/mL and 9.48 ng/mL
same,"Concentration, hippocampus (individual animals)","240 min, 1.25 mg/kg",15.35 ng/mL and 24.14 ng/mL and 23.55 ng/mL and 16.56 ng/mL
same,"Concentration, plasma (individual animals)","240 min, 1.25 mg/kg",0.67 ng/mL and 0.70 ng/mL and 0.34 ng/mL and 0.41 ng/mL and 0.57 ng/mL and 0.66 ng/mL
same,"Concentration, striatum (individual animals)","240 min, 1.25 mg/kg",4.87 ng/mL and 5.95 ng/mL and 6.85 ng/mL and 4.94 ng/mL
same,Vd/F,"plasma, 1.25 mg/kg",83 L/kg and 83.4 L/kg
same,Kp,"Swiss albino, mouse, frontal cortex, ip, read-out: Brain structure-to-plasma concentration ratio, frontal cortex (FC/P)",10.5
same,AUC(0-t),"Swiss albino, mouse, frontal cortex, ip, read-out: AUC0→t, frontal cortex (converted)",363 ng·h/mL
same,MRT,"Swiss albino, mouse, frontal cortex, ip, read-out: MRT, frontal cortex (converted)",1.54 h
same,concentration at 5 min,"Swiss albino, mouse, frontal cortex, ip, 1.25 mg/kg, 5 min, read-out: Concentration, frontal cortex (Mean)",355 ng/mL
same,concentration at 5 min,"Swiss albino, mouse, frontal cortex, ip, 1.25 mg/kg, 5 min, read-out: Concentration, frontal cortex (individual animals)",408 ng/mL
same,concentration at 15 min,"Swiss albino, mouse, frontal cortex, ip, 1.25 mg/kg, 15 min, read-out: Concentration, frontal cortex (Mean)",251 ng/mL
same,concentration at 15 min,"Swiss albino, mouse, frontal cortex, ip, 1.25 mg/kg, 15 min, read-out: Concentration, frontal cortex (individual animals)",233 ng/mL
same,concentration at 30 min,"Swiss albino, mouse, frontal cortex, ip, 1.25 mg/kg, 30 min, read-out: Concentration, frontal cortex (Mean)",201 ng/mL
same,concentration at 30 min,"Swiss albino, mouse, frontal cortex, ip, 1.25 mg/kg, 30 min, read-out: Concentration, frontal cortex (individual animals)",209 ng/mL
same,concentration at 60 min,"Swiss albino, mouse, frontal cortex, ip, 1.25 mg/kg, 60 min, read-out: Concentration, frontal cortex (Mean)",95.8 ng/mL
same,concentration at 60 min,"Swiss albino, mouse, frontal cortex, ip, 1.25 mg/kg, 60 min, read-out: Concentration, frontal cortex (individual animals)",104 ng/mL
same,concentration at 120 min,"Swiss albino, mouse, frontal cortex, ip, 1.25 mg/kg, 120 min, read-out: Concentration, frontal cortex (Mean)",41 ng/mL
same,concentration at 120 min,"Swiss albino, mouse, frontal cortex, ip, 1.25 mg/kg, 120 min, read-out: Concentration, frontal cortex (individual animals)",40.3 ng/mL
same,concentration at 240 min,"Swiss albino, mouse, frontal cortex, ip, 1.25 mg/kg, 240 min, read-out: Concentration, frontal cortex (Mean)",12.8 ng/mL
same,concentration at 240 min,"Swiss albino, mouse, frontal cortex, ip, 1.25 mg/kg, 240 min, read-out: Concentration, frontal cortex (individual animals)",9.95 ng/mL
same,concentration at 480 min,"Swiss albino, mouse, frontal cortex, ip, 1.25 mg/kg, read-out: Concentration, frontal cortex (Mean)",2.98 ng/mL
same,concentration at 480 min,"Swiss albino, mouse, frontal cortex, ip, 1.25 mg/kg, read-out: Concentration, frontal cortex (individual animals)",1.96 ng/mL
same,Cmax,"Swiss albino, mouse, frontal cortex, ip, 1.25 mg/kg, read-out: Cmax, frontal cortex",355 ng/g
same,Tmax,"Swiss albino, mouse, frontal cortex, ip, 1.25 mg/kg, read-out: tmax, frontal cortex (converted)",5 min
same,Kp,"Swiss albino, mouse, hippocampus, ip, read-out: Brain structure-to-plasma concentration ratio, hippocampus (H/P)",12.6
same,AUC(0-t),"Swiss albino, mouse, hippocampus, ip, read-out: AUC0→t, hippocampus (converted)",436 ng·h/mL
same,MRT,"Swiss albino, mouse, hippocampus, ip, read-out: MRT, hippocampus (converted)",1.78 h
same,concentration at 5 min,"Swiss albino, mouse, hippocampus, ip, 1.25 mg/kg, 5 min, read-out: Concentration, hippocampus (Mean)",274 ng/mL
